# Laboratory results published in patent publication US7629471B2, “Transcriptional factor, process for producing the same and use thereof” (NRL Pharma, Inc., priority 2003, dated 2009).
# Where “and” joins values, the source holds several entries; their conditions need not be identical. Equal entries are not always repeated. Where two headings read alike, the source gives them in different places. Marks after values point to notes of the source that are not given here.
# Legend:
# Male ICR mice = assay: Effect on serum total cholesterol: in-feed vs forced oral administration (Table 1); type: in vivo; settings: 1 week, n = 6, tested in triplicate
# Description: In contrast, the solubility of Compound-1 in water is as extremely low as about 0.7 g/l; Compounds-1 and -2 are poles apart in terms of solubility in water. […] However, even when both compounds are simply mixed in a mechanical manner into feed in an amount of 0.1% or even when both compounds are given for forced oral administration in the same drug amount calculated from feed intake, there is no reproducibility in their efficacy unlike the case where their acetone solutions are sprayed over feed.
# db/db mice = assay: Urinary sugar excretion in db/db mice: in-feed vs forced oral administration (Table 1); type: in vivo; settings: for % Reduction of urinary sugar excretion: n = 4, tested in triplicate
# ICR male mice = type: in vivo; settings: added at 0.1% to feed, 1 week; control group 143
# Description: Fifty ICR male mice (5 weeks of age) were randomly divided into 5 groups of 10 animals each and housed in polycarbonate cages at 5 animals per cage. […] […] After 1 week, the blood was collected from the heart of each mouse to determine the level of serum total cholesterol by an enzymatic method.
# Ras farnesylation = settings: cited from earlier work
# animal virus = settings: without affecting nucleic acid and protein biosynthesis; cited from earlier work
# rodents [1] = settings: rodents (mice, rats); cited from earlier work
# [2] = test system: mice starved for a 48-hour period; settings: trace amount by oral route 2 hours before feed intake; 2-hour intake time; mice starved 48 hours; cited from earlier work
# [3] = test system: arthritis in rats induced by adjuvant injection; settings: adjuvant injection into footpads; cited from earlier work
# [4] = cited from earlier work
# rodents [5] = settings: cited from earlier work
# hypertensive rat models = settings: cited from earlier work
# C57BL/ksj db/db mice = assay: Effect on genetically obese diabetic mice: urinary sugar excretion (Example 6); type: in vivo
# Experimental: A solution of Compound-16 (1 g) in acetone (about 50 ml) was sprinkled over and mixed well with 1 kg of rodent standard feed (CE-2, CLEA Japan, Inc., Japan), followed by air-drying in a chamber. The content of Compound-16 in this feed was about 0.1%. In the same manner, pellet chow samples containing 0.05% to 0.025% of Compound-16 were prepared and used for the experiment. To prepare control feed, the same powder feed was sprinkled with acetone and palletized. Twenty male db/db mice (8 weeks of age after birth) were randomly divided into 4 groups. Each group was housed in a cage for urine collection and fed with the Compound-16-containing feed or the control feed for 21 days. During the housing, the mice were allowed to take feed and water ad libitum and their urine was collected at the intervals indicated in Table 1 to determine urinary sugar excretion by an enzymatic method. The level of urinary sugar excretion was expressed as the mean per animal.
# aromatase = biological target: T1, aromatase (Homo sapiens, UniProt P11511); settings: cited from earlier work
# T1 sequence (P11511 1-503): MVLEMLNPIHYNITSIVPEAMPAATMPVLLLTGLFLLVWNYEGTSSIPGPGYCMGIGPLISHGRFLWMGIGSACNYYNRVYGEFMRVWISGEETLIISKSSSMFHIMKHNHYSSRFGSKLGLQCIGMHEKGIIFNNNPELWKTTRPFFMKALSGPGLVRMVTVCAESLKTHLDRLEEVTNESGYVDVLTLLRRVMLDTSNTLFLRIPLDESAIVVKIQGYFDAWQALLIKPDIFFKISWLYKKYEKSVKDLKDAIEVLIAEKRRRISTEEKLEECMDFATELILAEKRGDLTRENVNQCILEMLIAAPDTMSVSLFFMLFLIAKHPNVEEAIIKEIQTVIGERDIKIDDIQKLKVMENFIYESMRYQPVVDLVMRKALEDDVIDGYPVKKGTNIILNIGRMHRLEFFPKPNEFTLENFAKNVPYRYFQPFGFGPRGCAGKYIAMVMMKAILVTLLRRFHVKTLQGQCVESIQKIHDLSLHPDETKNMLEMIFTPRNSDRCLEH
# [6] = Spraying of acetone solution over feed, 0.1% in feed
# [7] = Mechanical mixing into feed, 0.1%
smiles,measurement,setting,value
"CC(C=CC1(C)C(C)CCC(=O)C1C)=CCc1c(O)c(C=O)c(C)c(Cl)c1OCC(=O)O (centres unmarked) [Compound-2, 4-O-carboxymethylascochlorin]",Decrease in serum cholesterol levels,Male ICR mice; [6],"17.5%-22.7% decrease, P < 0.01"
same,Toxic death,"db/db mice; Forced oral administration, db/db mice, deaths/animals in first, second, third test",2/4 in the first test and 1/4 in the second test and 1/4 in the third test
same,% Reduction of urinary sugar excretion,db/db mice; Forced oral administration,Not effective
same,Body weight gain,"db/db mice; Mechanical mixing into feed, db/db mice",body weight gain is inhibited.
same,Amount dissolved in water,Solubility in water; in the small intestine (pH 7.2 to 7.4),≥ 6%
CC(/C=C/[C@@]1(C)[C@H](C)CCC(=O)[C@@H]1C)=C\Cc1c(O)c(Cl)c(C)c(C=NCC(N)=O)c1O [Compound-13],Serum total cholesterol,ICR male mice,112** mg/dl
"CC(C=C[C@]1(C)[C@H](C)C(=O)CC[C@@H]1C)=CCc1c(O)c(Cl)c(C)c(C=O)c1O [Ascochlorin, 3-[5-[1(R),2(S),6(S)-trimethyl-3-oxocyclohexyl]-3-methyl-2,4-pentadienyl]-2,4-dihydroxy-5-chloro-6-methylbenzaldehyde]",Inhibition of Ras farnesylation,Ras farnesylation,inhibited Ras farnesylation
same,Animal virus growth,animal virus,arrests animal virus growth
same,Serum cholesterol lowering,rodents [1],effect of lowering serum cholesterol
same,Anorectic effect (feed intake),[2],half inhibition of feed intake
same,Inflammatory swelling,[3],alleviating inflammatory swelling
same,Absorption from the digestive tract,"[4]; in vivo, po",most of them pass through the digestive tract without being absorbed
C/C(=C\Cc1c(O)c(Cl)c(C)c(C=O)c1O)CC/C=C(\C)[C@@H]1CC(=O)C(C)(C)O1 [ascofuranone],Serum cholesterol lowering,rodents [1],serum cholesterol-lowering effect
same,Anticancer effect,rodents [5],anticancer effect
same,Progression to renal failure,hypertensive rat models,prevent hypertensive rat models from entering renal failure
"COc1c(Cl)c(C)c(C=O)c(O)c1C/C=C(C)/C=C/[C@@]1(C)[C@H](C)CCC(=O)[C@@H]1C [Compound-1, 4-O-methylascochlorin]",Decrease in serum cholesterol levels,"Male ICR mice; Forced oral administration, same drug amount calculated from feed intake",No decrease in all three
same,Decrease in serum cholesterol levels,Male ICR mice; [7],No decrease in all three tests
same,Decrease in serum cholesterol levels,Male ICR mice; [6],"15.2%-25.1% decrease, P < 0.01"
same,% Reduction of urinary sugar excretion,db/db mice; [7],No inhibitory effect is observed
same,Progression to renal failure,hypertensive rat models,prevent hypertensive rat models from entering renal failure
same,Absorption from the digestive tract,"[4]; orally administered to small animals (rats, mice) in the fasting state",most of them pass through the digestive tract without being absorbed
same,Solubility in water,Solubility in water,about 0.7 g/l
same,Solubility in water (in words),Solubility in water,substantially insoluble in water
CC(=O)N[C@@H](CCCCN=Cc1c(C)c(Cl)c(O)c(C/C=C(C)/C=C/[C@@]2(C)[C@H](C)CCC(=O)[C@@H]2C)c1O)C(=O)O [Compound-16],Level of urinary sugar excretion,"C57BL/ksj db/db mice; 0.025% in feed, 0 days (24 h urine beginning 1 day before initiation, baseline)",890 mg/mouse/day
same,Level of urinary sugar excretion,"C57BL/ksj db/db mice; 0.025% in feed, 1 day",600 mg/mouse/day
same,Level of urinary sugar excretion,"C57BL/ksj db/db mice; 0.025% in feed, 3 days",452 mg/mouse/day
same,Level of urinary sugar excretion,"C57BL/ksj db/db mice; 0.025% in feed, 7 days",175 mg/mouse/day
same,Level of urinary sugar excretion,"C57BL/ksj db/db mice; 0.025% in feed, 14 days",201 mg/mouse/day
same,Level of urinary sugar excretion,"C57BL/ksj db/db mice; 0.025% in feed, 21 days",134 mg/mouse/day
same,Level of urinary sugar excretion,"C57BL/ksj db/db mice; 0.05% in feed, 0 days (24 h urine beginning 1 day before initiation, baseline)",786 mg/mouse/day
same,Level of urinary sugar excretion,"C57BL/ksj db/db mice; 0.05% in feed, 1 day",541 mg/mouse/day
same,Level of urinary sugar excretion,"C57BL/ksj db/db mice; 0.05% in feed, 3 days",231 mg/mouse/day
same,Level of urinary sugar excretion,"C57BL/ksj db/db mice; 0.05% in feed, 7 days",253 mg/mouse/day
same,Level of urinary sugar excretion,"C57BL/ksj db/db mice; 0.05% in feed, 14 days",170 mg/mouse/day
same,Level of urinary sugar excretion,"C57BL/ksj db/db mice; 0.05% in feed, 21 days",52 mg/mouse/day
same,Level of urinary sugar excretion,"C57BL/ksj db/db mice; 0.1% in feed, 0 days (24 h urine beginning 1 day before initiation, baseline)",814 mg/mouse/day
same,Level of urinary sugar excretion,"C57BL/ksj db/db mice; 0.1% in feed, 1 day",187 mg/mouse/day
same,Level of urinary sugar excretion,"C57BL/ksj db/db mice; 0.1% in feed, 3 days",30 mg/mouse/day
same,Level of urinary sugar excretion,"C57BL/ksj db/db mice; 0.1% in feed, 7 days",15 mg/mouse/day
same,Level of urinary sugar excretion,"C57BL/ksj db/db mice; 0.1% in feed, 14 days",10 mg/mouse/day
same,Level of urinary sugar excretion,"C57BL/ksj db/db mice; 0.1% in feed, 21 days",10 mg/mouse/day
CC(/C=C/[C@@]1(C)[C@H](C)C=CC(=O)[C@@H]1C)=C\Cc1c(O)c(Cl)c(C)c(C=O)c1O [cylindrochlorin],Aromatase inhibition,aromatase,strong inhibitory substance
same,Serum cholesterol lowering,rodents [1],stronger effect of lowering serum cholesterol
CC(=O)N[C@@H](CCCCN=Cc1c(C)c(Cl)c(OCC(=O)O)c(C/C=C(C)/C=C/[C@@]2(C)[C@H](C)CCC(=O)[C@@H]2C)c1O)C(=O)O [Compound-19],Serum total cholesterol,ICR male mice,95** mg/dl
